#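 All cell lines were grown in 96-well plates and treated with compound for 48 hours. The concentration for 50% growth inhibition is given as GI50.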 Activity calls are given as the source filed them. Cut-off read from the data, not from the text of the source: active = GI50 up to about 1.1 µM and inactive = higher.
# Tests used:
# Test in all cases: inhibition of tumour cell growth, NCI panel, 48 h
# [1] = test system: 786-0
# [2] = test system: A549
# [3] = test system: ACHN
# [4] = test system: CAKI-1
# [5] = test system: COLO 205
# [6] = test system: DU-145
# [7] = test system: EKVX
# [8] = test system: HCC 2998
# [9] = test system: HCT-116
# [10] = test system: HCT-15
# [11] = test system: HL-60
# [12] = test system: HOP-62
# [13] = test system: HOP-92
# [14] = test system: HT-29
# [15] = test system: IGROV-1
# [16] = test system: KM12
# [17] = test system: LOX IMVI
# [18] = test system: M14
# [19] = test system: MCF7
# [20] = test system: MDA-MB-231
# [21] = test system: MDA-MB-435
# [22] = test system: MDA-N
# [23] = test system: MOLT-4
# [24] = test system: NCI-H226
# [25] = test system: NCI-H23
# [26] = test system: NCI-H460
# [27] = test system: NCI/ADR-RES
# [28] = test system: OVCAR-3
# [29] = test system: OVCAR-4
# [30] = test system: OVCAR-5
# [31] = test system: OVCAR-8
# [32] = test system: PC-3
# [33] = test system: SF-295
# [34] = test system: SF-539
# [35] = test system: SK-MEL-28
# [36] = test system: SK-MEL-2
# [37] = test system: SK-MEL-5
# [38] = test system: SK-OV-3
# [39] = test system: SN12C
# [40] = test system: SNB-19
# [41] = test system: SNB-75
# [42] = test system: SW-620
# [43] = test system: T47D
# [44] = test system: TK-10
# [45] = test system: U-251
# [46] = test system: UACC-257
# [47] = test system: UO-31
# [48] = test system: K562
# [49] = test system: SR
# [50] = test system: Hs-578T
# [51] = test system: NCI-H522
# [52] = test system: SF-268
# [53] = test system: A498
# [54] = test system: CCRF-CEM
# [55] = test system: Malme-3M
# [56] = test system: RPMI-8226
# [57] = test system: RXF 393
# [58] = test system: UACC-62
smiles,measurement,setting,value
CC1=CC(=O)/C(=C/N2C(=O)CNC2=S)C(=O)O1,GI50,[1],> 100 µM (inactive)
same,GI50,[2],> 100 µM (inactive)
same,GI50,[3],> 100 µM (inactive)
same,GI50,[4],> 100 µM (inactive)
same,GI50,[5],> 100 µM (inactive)
same,GI50,[6],> 100 µM (inactive)
same,GI50,[7],> 100 µM (inactive)
same,GI50,[8],> 100 µM (inactive)
same,GI50,[9],> 100 µM (inactive)
same,GI50,[10],> 100 µM
same,GI50,[11],> 100 µM (inactive)
same,GI50,[12],> 100 µM (inactive)
same,GI50,[13],> 100 µM (inactive)
same,GI50,[14],> 100 µM (inactive)
same,GI50,[15],> 100 µM (inactive)
same,GI50,[16],> 100 µM (inactive)
same,GI50,[17],> 100 µM (inactive)
same,GI50,[18],> 100 µM (inactive)
same,GI50,[19],> 100 µM (inactive)
same,GI50,[20],> 100 µM (inactive)
same,GI50,[21],> 100 µM (inactive)
same,GI50,[22],> 100 µM (inactive)
same,GI50,[23],> 100 µM (inactive)
same,GI50,[24],> 100 µM (inactive)
same,GI50,[25],> 100 µM (inactive)
same,GI50,[26],> 100 µM (inactive)
same,GI50,[27],> 100 µM (inactive)
same,GI50,[28],> 100 µM (inactive)
same,GI50,[29],> 100 µM (inactive)
same,GI50,[30],> 100 µM (inactive)
same,GI50,[31],> 100 µM (inactive)
same,GI50,[32],> 100 µM (inactive)
same,GI50,[33],> 100 µM (inactive)
same,GI50,[34],> 100 µM (inactive)
same,GI50,[35],> 100 µM (inactive)
same,GI50,[36],> 100 µM (inactive)
same,GI50,[37],> 100 µM (inactive)
same,GI50,[38],> 100 µM (inactive)
same,GI50,[39],> 100 µM (inactive)
same,GI50,[40],> 100 µM (inactive)
same,GI50,[41],> 100 µM (inactive)
same,GI50,[42],> 100 µM (inactive)
same,GI50,[43],> 100 µM (inactive)
same,GI50,[44],> 100 µM (inactive)
same,GI50,[45],> 100 µM (inactive)
same,GI50,[46],> 100 µM (inactive)
same,GI50,[47],> 100 µM (inactive)
CC(=O)c1ccc(NC(=O)CSc2nc(C)nc3c2sc(=S)n3-c2ccccc2)cc1,GI50,[9],3 µM (inactive)
same,GI50,[11],2.99 µM (inactive)
same,GI50,[48],> 10 µM (inactive)
same,GI50,[19],> 10 µM (inactive)
same,GI50,[31],> 10 µM (inactive)
same,GI50,[49],2.2 µM (inactive)
same,GI50,[47],9.42 µM (inactive)
COc1ccc2c(c1)c[n+](C)c1c3cc(OC)c(OC)cc3ccc21,GI50,[2],1.54 µM (inactive)
same,GI50,[4],11.9 µM (inactive)
same,GI50,[5],1.67 µM (inactive)
same,GI50,[10],14 µM
same,GI50,[50],2.05 µM (inactive)
same,GI50,[17],1.32 µM (inactive)
same,GI50,[20],1.42 µM (inactive)
same,GI50,[22],1.6 µM (inactive)
same,GI50,[51],1.02 µM (active)
same,GI50,[27],> 100 µM (inactive)
same,GI50,[31],1.22 µM (inactive)
same,GI50,[52],1.45 µM (inactive)
same,GI50,[39],1.73 µM (inactive)
same,GI50,[40],3.21 µM (inactive)
same,GI50,[49],2.1 µM (inactive)
same,GI50,[42],1.37 µM (inactive)
same,GI50,[45],1.02 µM (active)
O=C(NCc1ccccc1)c1cnc(Cl)cn1,GI50,[1],> 100 µM (inactive)
same,GI50,[53],> 100 µM (inactive)
same,GI50,[2],> 100 µM (inactive)
same,GI50,[3],20.1 µM (inactive)
same,GI50,[4],16.2 µM (inactive)
same,GI50,[54],23.1 µM (inactive)
same,GI50,[5],> 100 µM (inactive)
same,GI50,[6],> 100 µM (inactive)
same,GI50,[7],> 100 µM (inactive)
same,GI50,[8],17.3 µM (inactive)
same,GI50,[9],79.8 µM (inactive)
same,GI50,[10],23.1 µM
same,GI50,[11],> 100 µM (inactive)
same,GI50,[13],13.7 µM (inactive)
same,GI50,[14],33.2 µM (inactive)
same,GI50,[50],43.2 µM (inactive)
same,GI50,[15],42.8 µM (inactive)
same,GI50,[16],> 100 µM (inactive)
same,GI50,[17],28.8 µM (inactive)
same,GI50,[18],60.8 µM (inactive)
same,GI50,[19],> 100 µM (inactive)
same,GI50,[20],85.5 µM (inactive)
same,GI50,[21],62.7 µM (inactive)
same,GI50,[23],27.1 µM (inactive)
same,GI50,[55],34.3 µM (inactive)
same,GI50,[24],> 100 µM (inactive)
same,GI50,[25],23.3 µM (inactive)
same,GI50,[26],> 100 µM (inactive)
same,GI50,[51],2.12 µM (inactive)
same,GI50,[27],16.6 µM (inactive)
same,GI50,[28],31.2 µM (inactive)
same,GI50,[29],16.7 µM (inactive)
same,GI50,[31],52.4 µM (inactive)
same,GI50,[56],44.2 µM (inactive)
same,GI50,[57],> 100 µM (inactive)
same,GI50,[52],> 100 µM (inactive)
same,GI50,[33],> 100 µM (inactive)
same,GI50,[34],> 100 µM (inactive)
same,GI50,[35],> 100 µM (inactive)
same,GI50,[36],48.1 µM (inactive)
same,GI50,[37],54 µM (inactive)
same,GI50,[38],> 100 µM (inactive)
same,GI50,[39],> 100 µM (inactive)
same,GI50,[40],63.8 µM (inactive)
same,GI50,[41],29.7 µM (inactive)
same,GI50,[49],20.7 µM (inactive)
same,GI50,[42],> 100 µM (inactive)
same,GI50,[43],74 µM (inactive)
same,GI50,[44],> 100 µM (inactive)
same,GI50,[45],48.2 µM (inactive)
same,GI50,[46],53 µM (inactive)
same,GI50,[58],> 100 µM (inactive)
same,GI50,[47],18.1 µM (inactive)
COc1cc2ccc3ccncc3c2cc1OC,GI50,[1],> 10 µM (inactive)
same,GI50,[2],> 10 µM (inactive)
same,GI50,[3],> 10 µM (inactive)
same,GI50,[4],> 10 µM (inactive)
same,GI50,[54],> 10 µM (inactive)
same,GI50,[5],> 10 µM (inactive)
same,GI50,[12],> 10 µM (inactive)
same,GI50,[15],> 10 µM (inactive)
same,GI50,[48],> 10 µM (inactive)
same,GI50,[18],> 10 µM (inactive)
same,GI50,[19],> 10 µM (inactive)
same,GI50,[21],> 10 µM (inactive)
same,GI50,[23],> 10 µM (inactive)
same,GI50,[55],> 10 µM (inactive)
same,GI50,[25],> 10 µM (inactive)
same,GI50,[26],> 10 µM (inactive)
same,GI50,[27],> 10 µM (inactive)
same,GI50,[29],> 10 µM (inactive)
same,GI50,[30],> 10 µM (inactive)
same,GI50,[56],> 10 µM (inactive)
same,GI50,[57],> 10 µM (inactive)
same,GI50,[52],> 10 µM (inactive)
same,GI50,[35],> 10 µM (inactive)
same,GI50,[36],> 10 µM (inactive)
same,GI50,[37],> 10 µM (inactive)
same,GI50,[38],> 10 µM (inactive)
same,GI50,[41],> 10 µM (inactive)
same,GI50,[49],> 10 µM (inactive)
same,GI50,[42],> 10 µM (inactive)
same,GI50,[43],> 10 µM (inactive)
same,GI50,[45],> 10 µM (inactive)
same,GI50,[58],> 10 µM (inactive)

# From ChEMBL document CHEMBL1201862, “PubChem BioAssay data set” (2004)
